# Data published in US20230085362A1, “PYRIMIDINE COMPOUNDS AND USE THEREOF” (National Health Research Institutes, priority 2021, published 2023).
# Read-outs that look alike come from different tables or passages of the source.
# Test system: Primary DRG cells
# Assay: Neurite outgrowth assay (group A), paclitaxel-induced neurotoxicity
# Format: cell-based, C57BL/6 J mice
# Details: for neuroprotection against paclitaxel-induced neurotoxicity: 1 µM compound, 0.05 µM paclitaxel; for activity at 1 µM: Mus musculus, read-out: Neurite outgrowth (%); for Neurite outgrowth (%) A-B (extent of protection): difference between compound 1 µM + paclitaxel 0.05 µM and paclitaxel 0.05 µM alone
# Method: Compounds of this invention were evaluated using the neurite outgrowth assay as described in Chen et al., Scientific Reports, 7, 45366, DOI: 10.1038/srep45366 (2017).
# Cell culture. For primary culture, dorsal root ganglia (“DRG”) were removed from 7-weeks-old C57BL/6 J mice and digested with 0.1% collagenase (Sigma-Aldrich, St. Louis, MO) for 1 hour, followed by 0.25% trypsin treatment for 25 minutes. The dissociated neuron cultures were plated at a density of 2.5×10^4 cells per well in a 96 well optics plates (CLS3614; Sigma-Aldrich) precoated with 1 mg/mL poly-D-lysine (A-003-M; Sigma-Aldrich) for 3 hours. Primary DRG cells were grown in DMEM-F12 (11320033; Gibco®, ThermoFisher Scientific, Waltham, MA) supplemented with 10% fetal bovine serum (FBS, 26140079; Gibco®, ThermoFisher). These cells were maintained at 37° C. in an environment containing 5% CO2.
# Neurite outgrowth assay (group A). Primary DRG cells were incubated with one of the Example 2 compounds at 1 µM for 24 hours, and then treated with 0.05 µM paclitaxel for another 24 hours. After the paclitaxel treatment, the primary DRG cells were washed by PBS and then fixed with 4% paraformaldehyde (PFA, P6148; Sigma-Aldrich) for 15 minutes. The DRG cells thus fixed were permeabilized by 0.05% Triton X-100 in PBS for 20 minutes and blocked with 3% bovine serum albumin (BSA; Sigma-Aldrich, USA) at room temperature for 1 hour. Subsequently, DRG cells were stained with rabbit anti-β III tubulin (1:600; Cell Signaling, USA) and mouse anti-NeuN monoclonal antibody (1:400; Millipore, USA) overnight at 4° C. The samples were then washed by PBS and reacted with secondary antibodies (Alexa-488 and Alexa-594 1:600; Invitrogen, CA) at room temperature for 1 hour. For image acquisition and analysis of DRG neurite outgrowth, images of stained cells were automatically acquired using 10X objective by Image Xpress Micro wide field fluorescent microscope (Molecular Devices, USA). A control was obtained following the same procedure except that the DRG cells were not treated with a compound or paclitaxel. Neurite outgrowth was measured as a percentage of outgrowth as compared to the control.
# The difference between A and B indicates an extent of protection provided by the compound.
# [1] = DRG cells, 1 µM compound 24 h then 0.05 µM paclitaxel 24 h, % of untreated control
SMILES,neuroprotection against paclitaxel-induced neurotoxicity,activity at 1 µM (24 h),Neurite outgrowth (%) A-B (extent of protection),activity at 1 µM [1]
O=C(O)CCN1CCC(Nc2cc(N3CCOCC3)nc(NCc3cn(CC(=O)O)nn3)n2)CC1 [Compound 6],neuroprotection was provided,46%,3%,
NCCCn1cc(CNc2nc(NC3CCN(C(=O)CCNC(=O)C4(O)CC(O)C(O)C(O)C4)CC3)cc(N3CCOCC3)n2)nn1 (stereo not shown) [Compound 15],neuroprotection was provided,,3%,35%
CC(C)NCCCn1cc(CNc2nc(NC3CCNCC3)cc(N3CCOCC3)n2)nn1 [Compound 18],neuroprotection was provided,,3%,50%
COC(=O)c1cccc(CNCCCn2cc(CNc3nc(NC4CCN(Cc5ccccc5)CC4)cc(N4CCOCC4)n3)nn2)c1 [Compound 21],neuroprotection was provided,,3%,45%
CCCCC(=O)NCCCn1cc(CNc2nc(NC3CCN(CCP(=O)(O)O)CC3)cc(N3CCOCC3)n2)nn1 [Compound 28],neuroprotection was provided,,3%,53%
OCCCn1cc(CNc2nc(NC3CCNCC3)cc(N3CCCCC3)n2)nn1 [Compound 38],neuroprotection was provided,,5%,37%
CN1CCN(c2cc(NC3CCNCC3)nc(NCc3cn(CCCO)nn3)n2)CC1 [Compound 41],neuroprotection was provided,,3%,34%
CN1CCN(c2cc(NCc3cccnc3)nc(NCc3cn(CCCO)nn3)n2)CC1 [Compound 42],neuroprotection was provided,,3%,34%
COC(=O)CCN1CCC(Nc2cc(N3CCOCC3)nc(NCc3cn(CCCO)nn3)n2)CC1 [Compound 48],neuroprotection was provided,,11%,58%
CC(O)Cn1cc(CNc2nc(NC3CCNCC3)cc(N3CCOCC3)n2)nn1 (stereo not shown) [Compound 53],neuroprotection was provided,,2%,47%
CC(C)(O)CCn1cc(CNc2nc(NC3CCN(CCP(=O)(O)O)CC3)cc(N3CCOCC3)n2)nn1 [Compound 60],neuroprotection was provided,,4%,40%
COCCCn1cc(CNc2nc(NC3CCNCC3)cc(N3CCOCC3)n2)nn1 [Compound 61],neuroprotection was provided,,3%,52%
COCCCn1cc(CNc2nc(NC3CCN(CCC(=O)OC)CC3)cc(N3CCOCC3)n2)nn1 [Compound 62],neuroprotection was provided,,3%,50%
COC(=O)CCOCCCn1cc(CNc2nc(NC3CCN(Cc4ccccc4)CC3)cc(N3CCOCC3)n2)nn1 [Compound 65],neuroprotection was provided,,,
COC(=O)CCOCCCn1cc(CNc2nc(NC3CCN(CCC(=O)OC)CC3)cc(N3CCOCC3)n2)nn1 [Compound 66],neuroprotection was provided,,5%,52%
